Laboratory results from patent US11878965B2, “Inhibitors of peptidylarginine deiminases” (Gilead Sciences, Inc., priority 2020, dated 2024).

Target: human PAD4 (Homo sapiens (Human), UniProt Q9UM07)
Test: In Vitro PAD4 BAEE Biochemical Assay
Conditions: human PAD4, BAEE substrate; 5 nM PAD4, 2 mM calcium chloride, 3 mM BAEE; geometric mean of multiple experiments
Summary of the method: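 Deimination of BAEE substrate (3 mM) measured as ammonia via o-phthalaldehyde–DTT isoindole fluorescence, 405/535 nm. Tag-free bacterially expressed human PAD4 at 5 nM with 2 mM calcium chloride, pH 7.6 MOPS buffer, 30 min compound preincubation then 2 h reaction, both at 25 °C.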

human PAD4, sequence (Q9UM07 2-663): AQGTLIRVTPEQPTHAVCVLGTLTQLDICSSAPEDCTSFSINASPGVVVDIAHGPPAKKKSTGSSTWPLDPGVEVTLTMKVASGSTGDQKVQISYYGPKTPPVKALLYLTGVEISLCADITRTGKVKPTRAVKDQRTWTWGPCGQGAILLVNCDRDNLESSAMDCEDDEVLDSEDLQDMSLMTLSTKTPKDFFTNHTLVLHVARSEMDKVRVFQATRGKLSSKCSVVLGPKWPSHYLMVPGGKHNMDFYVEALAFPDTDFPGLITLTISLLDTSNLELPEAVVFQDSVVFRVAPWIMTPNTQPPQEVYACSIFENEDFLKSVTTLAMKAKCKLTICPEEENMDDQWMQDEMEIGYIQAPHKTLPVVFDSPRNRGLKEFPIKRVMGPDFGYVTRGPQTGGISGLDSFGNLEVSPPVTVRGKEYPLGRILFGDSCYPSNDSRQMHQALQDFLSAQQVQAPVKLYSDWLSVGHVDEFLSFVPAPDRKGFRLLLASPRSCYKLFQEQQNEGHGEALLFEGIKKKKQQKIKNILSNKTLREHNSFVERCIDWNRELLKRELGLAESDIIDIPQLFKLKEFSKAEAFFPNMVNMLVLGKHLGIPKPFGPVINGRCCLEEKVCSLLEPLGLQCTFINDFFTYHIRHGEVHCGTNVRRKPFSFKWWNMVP

| IC50 [µM] | Compound |
| --- | --- |
| 20.9 | COc1cc(C(=O)N[C@@H]2CCNC2)cc2nc(-c3cc4ccc(N(C(F)F)S(C)(=O)=O)nc4n3CC3CC3)n(C)c12 [Example 72, (R)-2-(1-(cyclopropylmethyl)-6-((N-(difluoromethyl)methyl)sulfonamido)-1H-pyrrolo[2,3-b]pyridin-2-yl)-7-methoxy-1-methyl-N-(pyrrolidin-3-yl)-1H-benzo[d] imidazole-5-carboxamide] |
| 7.2 | COc1cc(C(=O)N2CC3CCCC3(N)C2)cc2nc(-c3cc4ccc(N(C(F)F)S(C)(=O)=O)nc4n3CC3CC3)n(C)c12 (stereo not drawn) [Example 73, N-(2-(5-(3a-aminooctahydrocyclopenta[c]pyrrole-2-carbonyl)-7-methoxy-1-methyl-1H-benzo[d]imidazol-2-yl)-1-(cyclopropylmethyl)-1H-pyrrolo[2,3-b]pyridin-6-yl)-N-(difluoromethyl) methanesulfonamide] |
| 50 | COc1cc(C(=O)N2CCCC3(CCCN3)C2)cc2nc(-c3cc4ccc(N(C(F)F)S(C)(=O)=O)nc4n3CC3CC3)n(C)c12 (stereo not drawn) [Example 74, N-(1-(cyclopropylmethyl)-2-(7-methoxy-1-methyl-5-(1,7-diazaspiro[4.5]decane-7-carbonyl)-1H-benzo[d]imidazol-2-yl)-1H-pyrrolo[2,3-b]pyridin-6-yl)-N-(difluoromethyl) methanesulfonamide] |
| 50 | COc1cc(C(=O)N2CCCC3(CCN3)C2)cc2nc(-c3cc4ccc(N(C(F)F)S(C)(=O)=O)nc4n3CC3CC3)n(C)c12 (stereo not drawn) [Example 75, N-(1-(cyclopropylmethyl)-2-(7-methoxy-1-methyl-5-(1,6-diazaspiro[3.5]nonane-6-carbonyl)-1H-benzo[d]imidazol-2-yl)-1H-pyrrolo[2,3-b]pyridin-6-yl)-N-(difluoromethyl) methanesulfonamide] |
| 50 | COc1cc(C(=O)N2CC3(CCCCN3)C2)cc2nc(-c3cc4ccc(N(C(F)F)S(C)(=O)=O)nc4n3CC3CC3)n(C)c12 [Example 76, N-(1-(cyclopropylmethyl)-2-(7-methoxy-1-methyl-5-(2,5-diazaspiro[3.5]nonane-2-carbonyl)-1H-benzo[d]imidazol-2-yl)-1H-pyrrolo[2,3-b]pyridin-6-yl)-N-(difluoromethyl) methanesulfonamide] |
| 50 | COc1cc(C(=O)N2CC3(CCCN3)C2)cc2nc(-c3cc4ccc(N(C(F)F)S(C)(=O)=O)nc4n3CC3CC3)n(C)c12 [Example 77, N-(1-(cyclopropylmethyl)-2-(7-methoxy-1-methyl-5-(2,5-diazaspiro[3.4]octane-2-carbonyl)-1H-benzo[d]imidazol-2-yl)-1H-pyrrolo[2,3-b]pyridin-6-yl)-N-(difluoromethyl) methanesulfonamide] |
| 0.655 | COc1cc(C(=O)N2CC3CCC3(N)C2)cc2nc(-c3cc4ccc(N(C(F)F)S(C)(=O)=O)nc4n3CC3CC3)n(C)c12 (stereo not drawn) [Example 78, N-(2-(5-(1-amino-3-azabicyclo[3.2.0]heptane-3-carbonyl)-7-methoxy-1-methyl-1H-benzo[d]imidazol-2-yl)-1-(cyclopropylmethyl)-1H-pyrrolo[2,3-b]pyridin-6-yl)-N-(difluoromethyl) methanesulfonamide] |
| 0.24 | C=CC(=O)N[C@@H]1CNC[C@H]1NC(=O)c1cc(OC)c2c(c1)nc(-c1cc3ccc(N(C(F)F)S(C)(=O)=O)nc3n1CC1CC1)n2C [Example 80, N-((3R,4R)-4-acrylamidopyrrolidin-3-yl)-2-(1-(cyclopropylmethyl)-6-((N-(difluoromethyl)methyl)sulfonamido)-1H-pyrrolo[2,3-b]pyridin-2-yl)-7-methoxy-1-methyl-1H-benzo[d] imidazole-5-carboxamide] |
| 4.63 | C#CC(=O)N[C@@H]1CNC[C@H]1NC(=O)c1cc(OC)c2c(c1)nc(-c1cc3ccc(N(C(F)F)S(C)(=O)=O)nc3n1CC1CC1)n2C [Example 81, 2-(1-(cyclopropylmethyl)-6-((N-(difluoromethyl)methyl)sulfonamido)-1H-pyrrolo[2,3-b]pyridin-2-yl)-7-methoxy-1-methyl-N-((3R,4R)-4-propiolamidopyrrolidin-3-yl)-1H-benzo[d]imidazole-5-carboxamide] |
| 50 | COc1cc(C(=O)N[C@@H]2CNC[C@H]2NC(=O)CCCN(C)C)cc2nc(-c3cc4ccc(N(C(F)F)S(C)(=O)=O)nc4n3CC3CC3)n(C)c12 [Example 83, 2-(1-(cyclopropylmethyl)-6-((N-(difluoromethyl)methyl)sulfonamido)-1H-pyrrolo[2,3-b]pyridin-2-yl)-N-((3R,4R)-4-(4-(dimethylamino)butanamido)pyrrolidin-3-yl)-7-methoxy-1-methyl-1H-benzo[d]imidazole-5-carboxamide] |
| 50 | COc1cc(C(=O)N[C@H]2CCNC2)cc2nc(-c3cc4ccc(N(C(F)F)S(C)(=O)=O)nc4n3CC3CC3)n(C)c12 [Example 88, (S)-2-(1-(cyclopropylmethyl)-6-((N-(difluoromethyl)methyl)sulfonamido)-1H-pyrrolo[2,3-b]pyridin-2-yl)-7-methoxy-1-methyl-N-(pyrrolidin-3-yl)-1H-benzo[d]imidazole-5-carboxamide] |
| 0.812 | CN(c1ccc2cc(-c3nc4cc(C(=O)N5CCC[C@@H](N)C5)cc5c4n3CCO5)n(CC3CC3)c2n1)S(C)(=O)=O [Example 89, (R)-N-(2-(7-(3-aminopiperidine-1-carbonyl)-3,4-dihydro-5-oxa-1,2a-diazaacenaphthylen-2-yl)-1-(cyclopropylmethyl)-1H-pyrrolo[2,3-b]pyridin-6-yl)-N-methylmethanesulfonamide] |
| 26.4 | C[C@H](CN)NC(=O)c1cc2nc(-c3cc4ccc(N(C(F)F)S(C)(=O)=O)nc4n3CC3CC3)n(C)c2cc1F [Example 94, (R)-N-(1-aminopropan-2-yl)-2-(1-(cyclopropylmethyl)-6-((N-(difluoromethyl)methyl)sulfonamido)-1H-pyrrolo[2,3-b]pyridin-2-yl)-6-fluoro-1-methyl-1H-benzo[d]imidazole-5-carboxamide] |

More lines, now with the values behind:

| Compound | IC50 [µM] |
| --- | --- |
| COc1cc(C(=O)N2[C@H]3CC[C@@H]2[C@H](N)C3)cc2nc(-c3cc4ccc(N(C)S(C)(=O)=O)nc4n3CC3CC3)n(C)c12 [Example 79, N-(2-(5-((1R,2R,4S)-2-amino-7-azabicyclo[2.2.1]heptane-7-carbonyl)-7-methoxy-1-methyl-1H-benzo[d]imidazol-2-yl)-1-(cyclopropylmethyl)-1H-pyrrolo[2,3-b]pyridin-6-yl)-N-methyl-methanesulfonamide] | 0.0336 |
| COc1cc(C(=O)N2C[C@@H]3C[C@@H](N)[C@H]2C3)cc2nc(-c3cc4ccc(N(C(F)F)S(C)(=O)=O)nc4n3CC3CC3)n(C)c12 [Example 82, N-(2-(5-((1R,4R,6R)-6-amino-2-azabicyclo[2.2.1]heptane-2-carbonyl)-7-methoxy-1-methyl-1H-benzo[d]imidazol-2-yl)-1-(cyclopropylmethyl)-1H-pyrrolo[2,3-b]pyridin-6-yl)-N-(difluoromethyl) methanesulfonamide] | 47.6 |
| COc1cc(C(=O)N2[C@H]3CC[C@@H]2[C@H](N)C3)cc2nc(-c3cc4ccc(N(C(C)C)S(C)(=O)=O)nc4n3CC3CC3)n(C)c12 [Example 84, N-(2-(5-((1R,2R,4S)-2-amino-7-azabicyclo[2.2.1]heptane-7-carbonyl)-7-methoxy-1-methyl-1H-benzo[d]imidazol-2-yl)-1-(cyclopropylmethyl)-1H-pyrrolo[2,3-b]pyridin-6-yl)-N-isopropylmethanesulfonamide] | 0.0583 |
| COc1cc(C(=O)N2[C@@H]3CC[C@@H](N)[C@H]2CC3)cc2nc(-c3cc4ccc(N(C(C)C)S(C)(=O)=O)nc4n3CC3CC3)n(C)c12 [Example 85, N-(2-(5-((1R,2R,5R)-2-amino-8-azabicyclo[3.2.1]octane-8-carbonyl)-7-methoxy-1-methyl-1H-benzo[d]imidazol-2-yl)-1-(cyclopropylmethyl)-1H-pyrrolo [2,3-b]pyridin-6-yl)-N-isopropyl-methanesulfonamide] | 0.0698 |
| CN(c1ccc2cc(-c3nc4cc(C(=O)N5[C@H]6CC[C@@H]5[C@H](N)C6)cc5c4n3CCO5)n(CC3CC3)c2n1)S(C)(=O)=O [Example 90, N-(2-(7-((1R,2R,4S)-2-amino-7-azabicyclo[2.2.1]heptane-7-carbonyl)-3,4-dihydro-5-oxa-1,2a-diazaacenaphthylen-2-yl)-1-(cyclopropylmethyl)-1H-pyrrolo [2,3-b]pyridin-6-yl)-N-methylmethanesulfonamide] | 0.214 |
| COc1cc(C(=O)N2CCC[C@@H](N)[C@H]2C)cc2nc(-c3cc4ccc(N=S(C)(C)=O)nc4n3CC3CC3)n(C)c12 [Example 95, ((2-(5-((2R,3R)-3-amino-2-methylpiperidine-1-carbonyl)-7-methoxy-1-methyl-1H-benzo[d]imidazol-2-yl)-1-(cyclopropylmethyl)-1H-pyrrolo [2,3-b]pyridin-6-yl)imino)dimethyl-16-sulfanone] | 1.57 |
| COc1cc(C(=O)N2CCC[C@@H](N)C2)cc2nc(-c3cc4ccc(N5CCCS5(=O)=O)nc4n3CC3CC3)n(C)c12 [Example 96, (R)-(3-aminopiperidin-1-yl)(2-(1-(cyclopropylmethyl)-6-(1,1-dioxidoisothiazolidin-2-yl)-1H-pyrrolo[2,3-b]pyridin-2-yl)-7-methoxy-1-methyl-1H-benzo[d]imidazol-5-yl) methanone] | 1.05 |
| COc1cc(C(=O)N2CCC[C@@H](N)C2)cc2nc(-c3cc4ccc(N5CCCCS5(=O)=O)nc4n3CC3CC3)n(C)c12 [Example 97, (R)-(3-aminopiperidin-1-yl) (2-(1-(cyclopropylmethyl)-6-(1,1-dioxido-1,2-thiazinan-2-yl)-1H-pyrrolo[2,3-b]pyridin-2-yl)-7-methoxy-1-methyl-1H-benzo[d]imidazol-5-yl)methanone] | 0.159 |
